From patent publication US20220331492A1, “COMPOSITION AND METHOD FOR CONTROLLED DRUG RELEASE FROM A TISSUE” (Bard Shannon Limited, priority 2017, published 2022)

Tests used:
[1] = cited from earlier work
[2] = mixed with fibrin glue; cited from earlier work
[3] = In vitro drug release from antibiotic-encapsulated PLGA microparticles; assay type: physicochemical; settings: drug encapsulated in free PLGA (50:50) microparticles; buffer, 37° C., 120 rpm
Protocol: The amount of antibiotic was determined by dissolving 20 mg beads in 1 mL NaOH 1 M at 37° C. After complete dissolution, 1 mL of HCl 1 M was added to neutralize the pH. […] A mixture of NaOH 1 M and HCl 1 M (1:1) was used as a blank.
The gentamicin concentration was determined by a colormetric assay: 0.5 mL of the gentamicin solution was mixed with 0.35 mL of sodium phosphate buffer (50 mM, pH 7.4) and 0.15 mL of 1.25% ninhydrin solution. The reaction occurred at 95° C. for 15 minutes and the tubes were then cooled in an ice-water bath for 10 min. The UV-visible spectra over the wavelength range of 200-700 nm were measured using the mixture of ninhydrin and the respective buffer solution at the appropriate concentrations as the blanks. The gentamicin concentration was calculated at the maximal absorbance (λmax˜315 nm).
The microspheres (25 mg of ciprofloxacin-encapsulated PLGA beads, 80 mg of gentamicin encapsulated PLGA beads, 40 mg of vancomycin-encapsulated PLGA beads) were placed into glass vials filled with 10 mL solution (PBS for vancomycin and ciprofloxacin-encapsulated PLGA beads and sodium phosphate buffer for gentamicin encapsulated PLGA beads). The vials were placed in an orbital shaker incubator at 37° C., where they were shaken at 120 rpm. […] Finally, the 1.5 mL of suspension were returned back into the glass vials. For gentamicin, the reaction with ninhydrin is irreversible. 0.5 ml, of the solution was replaced each day with fresh sodium phosphate buffer to maintain a constant volume.

[4] = Release of ciprofloxacin from PLGA microparticles embedded in enzymatically crosslinked gelatin matrix; assay type: physicochemical
Protocol: Entrapment of microparticles in enzymatically crosslinked gelatin hydrogel was performed as follows.
This solution was mixed with 5.0 gr of gelatin solution. 0.25 gr of the mixture was cast in a glass vial, and curing occurred at 37° C. for 15 min. 5 mL of PBS was added to the vial to wash the gel. An additional 5 mL of PBS was added and the vial was placed in an orbital shaker incubator at 37° C. where it was shaken at 120 rpm. Once a day, 1.5 mL of the cured gel extract was centrifuged and 1 mL of the supernatant was taken to spectrophotometer to measure the drug concentration. After measurement, the 1.5 mL extract was returned back into the glass vials, crosslinked gelatin without beads was casted according to the same procedure and the extract was used as blank.

[5] = system: Bacillus subtilis (ATCC 6633); experiment: Microdilution assay of hydrogel disc extracts versus MIC; assay type: cell-based; settings: extracts of crosslinked gelatin hydrogel containing 2% drug-loaded PLGA beads; throughout the study (1-14 days)
Protocol: (§1) The bacteria used was Bacillus subtilis, which serves as a model microorganism for gram positive bacteria.
6 discs of 0.2 gr crosslinked gelatin containing 2% vancomycin/gentamicin-encapsulated PLGA beads were casted in plastic mold of 12 mm diameter. After […] of curing at 37° C., the gels were separately placed in glass vial filled with 1.5 mL sodium phosphate buffer. The vials were placed in an incubator at 37° C. After 1, 2, 4, 7, 11 and 14 days, the gel was taken out and the hydrogel extract was frozen until test.
The antibacterial activity of the hydrogel discs extracts was studied by employing a microdilution method (FIG. 3b). Plates were prepared under sterile conditions. 100 μL of test materials were pipetted into the first column of the sterile 96-well plate. To all other wells 50 μL of saline was added. Serial dilutions were performed using a multichannel pipette. Tips were discarded after use such that each well had 50 μL of the test material in serially descending concentrations. […]
After 24 hours, the OD of each well was measured at 600 nm to determinate the presence or absence of bacterium. The lowest concentration at which […] was taken as the MIC value.

[6] = system: Bacillus subtilis (ATCC 6633); experiment: Agar disk-diffusion (Kirby-Bauer) assay of crosslinked gelatin discs containing antibiotic PLGA beads; assay type: cell-based; settings: crosslinked gelatin hydrogel containing drug-loaded PLGA MPs; gels incubated in saline for 14 days
Protocol: as §1
3 discs of 0.2 gr crosslinked gelatin containing 2% vancomycin-gentamicin-encapsulated PLGA beads were casted as previously reported 3 additional discs without beads were also casted and used as negative control. Filters containing 30 μg antibiotics (gentamicin or vancomycin) were used as positive controls.
The gel discs with and without beads and the filter containing antibiotics were placed in LB agar plates on which 100 μl of bacterium suspension had been evenly spread. The petri dishes were placed in an orbital shaker incubator at 37° C. where a horizontal shake was performed at 120 rpm.

Molecule | release kinetics after initial burst release [3] | concentration of the eluted antibiotic drug relative to MIC [5] | bacteria killing (ring around the gel) in agar diffusion assay [6] | further results
CCOC(=O)c1ccc(N)cc1 [Benzocaine] | – | – | – | water solubility [1]: very low
Cc1nnc(SCC2=C(C(=O)O)N3C(=O)[C@@H](NC(=O)Cn4cnnn4)[C@H]3SC2)s1 [cefazolin] | – | – | – | release time [2]: 2 days
O=C(O)c1cn(C2CC2)c2cc(N3CCNCC3)c(F)cc2c1=O [ciprofloxacin] | zero order kinetics | – | – | time over which the drug eluted ([4]; PLGA MPs embedded in in situ cross-linkable gelatin matrix): 2 weeks; release rate of MPs embedded in gelatin matrix compared to free MPs ([4]; PLGA MPs embedded in in situ enzymatically crosslinked gelatin, PBS, 37° C.): somewhat slower
CN[C@H](CC(C)C)C(=O)N[C@H]1C(=O)N[C@@H](CC(N)=O)C(=O)N[C@H]2C(=O)N[C@H]3C(=O)N[C@H](C(=O)N[C@H](C(=O)O)c4cc(O)cc(O)c4-c4cc3ccc4O)[C@H](O)c3ccc(c(Cl)c3)Oc3cc2cc(c3O[C@@H]2O[C@H](CO)[C@@H](O)[C@H](O)[C@H]2O[C@H]2C[C@](C)(N)[C@H](O)[C@H](C)O2)Oc2ccc(cc2Cl)[C@H]1O [vancomycin] | zero order kinetics | considerably above MIC | still had enough drug remaining within the matrix to induce bacteria killing | –
gentamycin | zero order kinetics | considerably above MIC | still had enough drug remaining within the matrix to induce bacteria killing | –
